# According to patent US20060252766A1, “Methods using a combination of 3-heteroaryl-2-indolinone and a cyclooxygenase-2 inhibitor for the treatment of neoplasia” (PFIZER INC, priority 2002, published 2006):
# Values joined by “and” are separate entries in the source; they are usually repeats but may differ in a detail not shown here. Identical values can stand only once. Like-named read-outs stand apart in the source and are kept apart here.
# Legend:
# FGFR = FGFR (Mus musculus, UniProt P16092); assay: FGF ligand BrdU incorporation in 3T3/EGFR cells; format: cell-based; conditions: Mitogenesis in 3T3/EGFR cells
# PDGFR = assay: PDGF-induced BrdU incorporation assay in 3T3/EGFR cells; format: cell-based; conditions: Mitogenesis in 3T3/EGFR cells, read-out: PDGFR PDGF Ligand IC50
# Description: Protocol • (1) 3T3 engineered cell line: 3T3/EGFRc7. • (2) Cells are seeded at 8000 cells/well in DMEM, 10% CS, 2 mM Gin in a 96 well plate. […] The negative control wells receive serum free DMEM with 0.1% BSA only; the positive control cells receive the ligand (PDGF) but no test compound. […] FixDenat solution is added (50 μl/well) and the plates are incubated at room temperature for 45 minutes on a plate shaker. • (7) The FixDenat solution is thoroughly removed by decanting and tapping the inverted plate on a paper towel. Milk is added (5% dehydrated milk in PBS, 200 μl/well) as a blocking solution and the plate is incubated for 30 minutes at room temperature on a plate shaker. • (8) The blocking solution is removed by decanting and the wells are washed once with PBS. Anti-BrdU-POD solution (1:100 dilution in PBS, 1% BSA) is added (100 μl/well) and the plate is incubated for 90 minutes at room temperature on a plate shaker. • (9) The antibody conjugate is thoroughly removed by decanting and rinsing the wells 5 times with PBS, and the plate is dried by inverting and tapping on a paper towel. • (10) TMB substrate solution is added (100 μl/well) and incubated for 20 minutes at room temperature on a plate shaker until color development is sufficient for photometric detection. • (11) The absorbance of the samples is measured at 410 nm (in “dual wavelength” mode with a filter reading at 490 nm, as a reference wavelength) on a Dynatech ELISA plate reader.
# [1] = test system: 1483 human head and neck squamous cell carcinoma (HNSCC) xenograft; assay: HN1483 tumor model: paw tumor volume of treated mice; format: in vivo, nude mice; conditions: for Tumor vol. Average: group average; for Paw volume, paw / Tumor vol.: individual mice
# [2] = SU-5416/50 mgkd, Day 17 Mar. 16, 2001
# [3] = SU-5416/50 mgkd, Day 21 Mar. 20, 2001
# [4] = SU-5416/50 mgkd, Day 24 Mar. 23, 2001
# [5] = SU-5416/50 mgkd, Day 31 Apr. 2, 2001
# [6] = SU-5416/50 mgkd, Day 31 Mar. 30, 2001
# Sequence of FGFR (P16092 22-822, change not shown): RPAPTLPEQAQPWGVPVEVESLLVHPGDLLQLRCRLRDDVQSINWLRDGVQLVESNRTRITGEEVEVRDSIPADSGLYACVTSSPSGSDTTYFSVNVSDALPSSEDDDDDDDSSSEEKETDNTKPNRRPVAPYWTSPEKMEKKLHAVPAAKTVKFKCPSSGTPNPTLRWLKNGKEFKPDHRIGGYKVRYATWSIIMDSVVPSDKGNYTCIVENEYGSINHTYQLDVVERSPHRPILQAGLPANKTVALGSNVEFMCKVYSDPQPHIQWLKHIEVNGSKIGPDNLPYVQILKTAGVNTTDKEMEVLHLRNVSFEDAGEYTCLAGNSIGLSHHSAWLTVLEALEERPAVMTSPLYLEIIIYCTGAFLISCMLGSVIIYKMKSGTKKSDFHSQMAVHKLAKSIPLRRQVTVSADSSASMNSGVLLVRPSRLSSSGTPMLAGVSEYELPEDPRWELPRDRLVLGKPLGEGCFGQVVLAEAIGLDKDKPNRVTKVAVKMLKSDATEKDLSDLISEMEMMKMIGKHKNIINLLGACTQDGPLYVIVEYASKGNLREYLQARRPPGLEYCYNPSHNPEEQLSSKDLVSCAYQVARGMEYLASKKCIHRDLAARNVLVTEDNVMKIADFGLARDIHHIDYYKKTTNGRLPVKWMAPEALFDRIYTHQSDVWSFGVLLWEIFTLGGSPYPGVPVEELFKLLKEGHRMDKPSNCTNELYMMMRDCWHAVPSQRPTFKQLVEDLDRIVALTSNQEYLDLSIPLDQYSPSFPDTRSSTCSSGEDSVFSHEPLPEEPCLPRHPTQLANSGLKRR
compound,measurement,setting,value
"Cc1c(CCC(=O)O)c[nH]c1C=C1C(=O)Nc2ccccc21 [SU5402, 3-[(3-(2-carboxyethyl)-4-methylpyrrol-5-yl)methylene]-2-indolinone]",IC50,FGFR,40 µM
same,IC50,PDGFR,50 µM
"Cc1c[nH]c(C=C2C(=O)Nc3ccccc32)c1C [SU5406, 3-[(3,4-Dimethylpyrrol-2-yl)methylene]-2-indolinone]",IC50,PDGFR,5.2 µM
"Cc1cc(C)c(C=C2C(=O)Nc3ccccc32)[nH]1 [SU5416, 3-[(2,4-Dimethylpyrrol-5-yl)methylene]-2-indolinone]",Tumor vol. Average,"[1]; SU5416 25 mg/kg/day s.c. group, Day 7 Mar. 3, 2001 (before start of dosing)",0.14
same,"Paw volume, paw","[1]; SU5416 25 mg/kg/day s.c. group, Day 7 Mar. 3, 2001 (before start of dosing), 25 mg/kg/day",0.26 (3×) and 0.28 and 0.27 (2×) and 0.24 and 0.23
same,Tumor vol.,"[1]; SU5416 25 mg/kg/day s.c. group, Day 7 Mar. 3, 2001 (before start of dosing), paw minus 0.10, 25 mg/kg/day",0.16 (2×) and 0.17 (3×) and 0.18 and 0.14 and 0.13
same,Tumor vol. Average,"[1]; SU5416 25 mg/kg/day s.c., Day 14 Mar. 13, 2001",0.18
same,"Paw volume, paw","[1]; SU5416 25 mg/kg/day s.c., Day 14 Mar. 13, 2001, 25 mg/kg/day",0.29 (3×) and 0.28 (2×) and 0.27 and 0.26 and 0.24
same,Tumor vol.,"[1]; SU5416 25 mg/kg/day s.c., Day 14 Mar. 13, 2001, paw minus BKG. 0.10, 25 mg/kg/day",0.19 (3×) and 0.18 and 0.17 and 0.16 (2×) and 0.14
same,Tumor vol. Average,"[1]; SU5416 25 mg/kg/day s.c., Day 17 Mar. 16, 2001",0.21
same,"Paw volume, paw","[1]; SU5416 25 mg/kg/day s.c., Day 17 Mar. 16, 2001, 25 mg/kg/day",0.37 (2×) and 0.33 and 0.29 and 0.28 (2×) and 0.36 and 0.23
same,Tumor vol.,"[1]; SU5416 25 mg/kg/day s.c., Day 17 Mar. 16, 2001, paw minus BKG. 0.10, 25 mg/kg/day",0.27 (2×) and 0.23 and 0.19 and 0.18 (2×) and 0.26 and 0.13
same,Tumor vol. Average,"[1]; SU5416 25 mg/kg/day s.c., Day 21 Mar. 20, 2001",0.34
same,"Paw volume, paw","[1]; SU5416 25 mg/kg/day s.c., Day 21 Mar. 20, 2001, 25 mg/kg/day",0.55 and 0.49 and 0.37 and 0.34 and 0.4 and 0.58 and 0.56 and 0.24
same,Tumor vol.,"[1]; SU5416 25 mg/kg/day s.c., Day 21 Mar. 20, 2001, paw minus BKG. 0.10, 25 mg/kg/day",0.45 and 0.39 and 0.27 and 0.24 and 0.30 and 0.48 and 0.46 and 0.14
same,Tumor vol. Average,"[1]; SU5416 25 mg/kg/day s.c., Day 24 Mar. 23, 2001",0.39
same,"Paw volume, paw","[1]; SU5416 25 mg/kg/day s.c., Day 24 Mar. 23, 2001, 25 mg/kg/day",0.59 and 0.8 and 0.37 and 0.4 and 0.49 and 0.65 and 0.61 and 0.22
same,Tumor vol.,"[1]; SU5416 25 mg/kg/day s.c., Day 24 Mar. 23, 2001, paw minus BKG. 0.10, 25 mg/kg/day",0.49 and 0.50 and 0.27 and 0.30 (2×) and 0.55 and 0.51 and 0.12
same,Tumor vol. Average,"[1]; SU5416 25 mg/kg/day s.c., Day 31 Apr. 2, 2001",0.87
same,"Paw volume, paw","[1]; SU5416 25 mg/kg/day s.c., Day 31 Apr. 2, 2001, 25 mg/kg/day",0.82 and 0.79 and 0.57 and 0.6 and 0.66 and 0.98 and 0.75 and 0.21
same,Tumor vol.,"[1]; SU5416 25 mg/kg/day s.c., Day 31 Apr. 2, 2001, paw minus BKG. 0.10, 25 mg/kg/day",0.72 and 0.69 and 0.47 and 0.50 and 0.56 and 0.68 and 0.65 and 0.11
same,Tumor vol. Average,"[1]; SU5416 25 mg/kg/day s.c., Day 31 Mar. 30, 2001",0.56
same,"Paw volume, paw","[1]; SU5416 25 mg/kg/day s.c., Day 31 Mar. 30, 2001, 25 mg/kg/day",0.84 and 0.5 and 0.71 and 0.23 and 0.73 and 0.81 and 0.54 and 0.56
same,Tumor vol.,"[1]; SU5416 25 mg/kg/day s.c., Day 31 Mar. 30, 2001, paw minus BKG. 0.10, 25 mg/kg/day",0.74 and 0.70 and 0.61 and 0.13 and 0.63 and 0.71 and 0.44 and 0.46
same,Tumor vol. Average,"[1]; SU5416 25 mg/kg/day s.c., Start dosing Day 10 Mar. 9, 2001",0.16
same,"Paw volume, paw","[1]; SU5416 25 mg/kg/day s.c., Start dosing Day 10 Mar. 9, 2001, 25 mg/kg/day",0.3 and 0.25 and 0.23 and 0.26 and 0.27 and 0.29 and 0.24 (2×)
same,Tumor vol.,"[1]; SU5416 25 mg/kg/day s.c., Start dosing Day 10 Mar. 9, 2001, paw minus BKG. 0.10, 25 mg/kg/day",0.20 and 0.15 and 0.13 and 0.10 and 0.17 and 0.19 and 0.14 (2×)
same,"Paw volume, paw","[1]; SU-5416/50 mgkd, Day 14 Mar. 13, 2001",0.29 and 0.22 and 0.32 and 0.27 (2×) and 0.24 and 0.26 and 0.21
same,Tumor vol. Average,[1]; [2],0.19
same,"Paw volume, paw",[1]; [2],0.24 and 0.27 and 0.2 and 0.3 and 0.32 and 0.22 and 0.39 and 0.34
same,Tumor vol.,"[1]; SU-5416/50 mgkd, Day 17 Mar. 16, 2001, paw minus BKG. 0.10",0.14 and 0.17 and 0.10 and 0.20 and 0.22 and 0.12 and 0.29 and 0.24
same,Tumor vol. Average,[1]; [3],0.27
same,"Paw volume, paw",[1]; [3],0.27 and 0.36 and 0.19 and 0.31 and 0.44 and 0.22 and 0.63 and 0.48
same,Tumor vol.,"[1]; SU-5416/50 mgkd, Day 21 Mar. 20, 2001, paw minus BKG. 0.10",0.17 and 0.28 and 0.09 and 0.21 and 0.34 and 0.12 and 0.53 and 0.38
same,Tumor vol. Average,[1]; [4],0.30
same,"Paw volume, paw",[1]; [4],0.25 and 0.46 and 0.19 and 0.28
same,Tumor vol.,"[1]; SU-5416/50 mgkd, Day 24 Mar. 23, 2001, paw minus BKG. 0.10",0.15 and 0.36 and 0.09 and 0.18 and 0.42 and 0.08 and 0.64
same,Tumor vol. Average,[1]; [5],0.34
same,"Paw volume, paw",[1]; [5],0.18 and 0.53 and 0.15 and 0.25
same,Tumor vol.,"[1]; SU-5416/50 mgkd, Day 31 Apr. 2, 2001, paw minus BKG. 0.10",0.08 (2×) and 0.43 and 0.05 and 0.15 and 0.59
same,Tumor vol. Average,[1]; [6],0.36
same,"Paw volume, paw",[1]; [6],0.24 and 0.6 and 0.18 and 0.21
same,Tumor vol.,"[1]; SU-5416/50 mgkd, Day 31 Mar. 30, 2001, paw minus BKG. 0.10",0.14 (2×) and 0.50 and 0.08 and 0.11 and 0.73 and 0.62
same,"body wt, individual mouse","group 2, SU5416 25 mg/kg/day s.c., Day 0 (day of injection), 25 mg/kg/day",31.93
same,"body wt, individual mouse","group 2, SU5416 25 mg/kg/day s.c., Day 7, 25 mg/kg/day",32.41 and 25.96
same,"body wt, individual mouse","group 2, SU5416 25 mg/kg/day s.c., Day 10, 25 mg/kg/day",32.36 and 25.96 and 31
same,"body wt, individual mouse","group 2, SU5416 25 mg/kg/day s.c., Day 14, 25 mg/kg/day",28.02 and 32.11 and 23.91 and 21.18
same,"body wt, individual mouse","group 2, SU5416 25 mg/kg/day s.c., Day 17, 25 mg/kg/day",28.98 and 18.97
same,"body wt, individual mouse","group 2, SU5416 25 mg/kg/day s.c., Day 21, 25 mg/kg/day",22.29 and 18.32
same,"body wt, individual mouse","group 2, SU5416 25 mg/kg/day s.c., Day 24, 25 mg/kg/day",24.83 and 21.3 and 22.29 and 22.93 and 18.15 and 29.02
same,"body wt, individual mouse","group 2, SU5416 25 mg/kg/day s.c., Day 31, 25 mg/kg/day",23.86 and 17.88 and 20.51
same,"body wt, individual mouse","group 2, SU5416 25 mg/kg/day s.c., Day 35, 25 mg/kg/day",21.74 and 22.95 and 18.42
same,"body wt, individual mouse","group 5, SU-5416 50 mpkd, Day 0 (day of injection)",26.04
same,"body wt, individual mouse","group 5, SU-5416 50 mpkd, Day 7",29.04
same,"body wt, individual mouse","group 5, SU-5416 50 mpkd, Day 21",25.96 and 24.96
same,"body wt, individual mouse","group 5, SU-5416 50 mpkd, Day 24",22.85 and 24.01 and 24.79
same,"body wt, individual mouse","group 5, SU-5416 50 mpkd, Day 31",26.03
"CCc1ccc(C=C2C(=O)Nc3ccccc32)s1 [SU5451, 3-[(2-Ethylthien-5-yl)methylene]-2-indolinone]",IC50,FGFR,16 µM
same,IC50,PDGFR,30 µM
